Experiments:
[1] = tested on: large crabgrass (Digitaria sanguinalis); experiment: Biology comparison: control of large crabgrass by stored granule samples; format: in vivo; details: after storage for 1 year at room temperature or 19 days at 50° C.
Excerpt: Callisto® (a commercially available liquid formulation containing 4 lbs/gal of the active ingredient 2-(2′-nitro-4′-methylsulphonylbenzoyl)-1,3-cyclohexanedione acid) (Syngenta Crop Protection, Inc.) is sprayed onto fertilizer granules (Scotts® Turf Builder® Lawn Fertilizer 29-3-4 (with added nutrients)) (The Scotts Co.) in an amount sufficient to achieve an average a.i. loading of 0.082% by weight. Sample 2 is a control sample that is freshly prepared and has not been stored. Sample 3 is stored for 1 year at ambient room temperature. Sample 4 is stored under accelerated conditions (19 days at 50° C.).
A spray solution of Example 1 is sprayed onto fertilizer granules (Scotts® Turf Builder® Lawn Fertilizer 29-3-4 (with added nutrients)) (The Scotts Co.) in an amount sufficient to achieve an average a.i. loading of 0.082% by weight. Sample 5 is stored for 1 year at ambient room temperature. Sample 6 is stored under accelerated conditions (19 days at 50° C.).
All samples are applied to large crabgrass (Digitaria sanguinalis) at 224 g ai/ha, and control assessed 10 days after treatment. Sample 1 is an untreated control.

[2] = Stability comparison: accelerated temperature storage of coated granules, a.i. extracted and assayed by HPLC; format: physicochemical; details: storage at 38° C. and 50° C.
Procedure: The materials prepared in examples 1-7 are tested for stability as follows: • 1) After obtaining the coated granules according to the procedures given above, material is divided up into samples by using a standard “Riffler”, which is used to generate statistically representative samples from a large batch. • 2) The individual “riffled” samples are put on accelerated temperature storage (in ovens) at 38° C. and 50° C. • 3) Samples are pulled from each temperature at regular intervals, and assayed for 2-(2′-nitro-4′-methylsulphonylbenzoyl)-1,3-cyclohexanedione acid concentration (weight %). Commonly 2-3 samples are pulled from each temperature, each week. • 4) The pulled samples are analyzed for stability by extraction of the a.i. material from the granules and assayed by HPLC.

2-(2′-nitro-4′-methylsulphonylbenzoyl)-1,3-cyclohexanedione copper chelate
control of large crabgrass compared with the unchelated (acid) form on fertiliser granules [1]: improved control of large crabgrass | stability on granules compared with the unchelated (acid) form [2]: improved stability

— patent publication US8877244B2, “Stabilized pesticidal granules” (priority 2006, dated 2014)
